{"source": "BindingDB's records for doi:10.7270/Q26W98HW", "about": "(Burnham Center For Chemical Genomics, 2009)", "data": [{"target": "Eukaryotic translation initiation factor 4H (Homo sapiens, UniProt Q15056)", "experiment": "eIF4H binding inhibition – biochemical, uHTS, fluorescence polarization, translation initiation inhibitor project, primary screen (AID 2012)", "units": {"IC50": "µM"}, "values": [{"compound": "CC1(C)Oc2ccc3ccc(=O)oc3c2C(CN=O)=C1Cl", "note": "[9-chloro-2-keto-8,8-dimethyl-pyrano[2,3-f]chromene-10-carbaldehyde oxime]", "IC50": 100}, {"compound": "COc1ccc(CN=Nc2nc(O)c(CC(=O)O)s2)cc1OCc1ccc(Cl)cc1Cl", "note": "[[2-({3-[(2,4-dichlorobenzyl)oxy]-4-methoxybenzylidene}hydrazono)-4-oxo-1,3-thiazolidin-5-yl]acetic acid]", "IC50": 14.7}, {"compound": "CC1=NC(=O)NC(c2ccco2)C1C(=O)OC(C)C", "note": "(centres undefined) [SMR000120838]", "IC50": 34.7}, {"compound": "CCn1c(=NC(=O)c2ccc(-n3c(O)ccc3O)cc2)sc2c(OC)ccc(OC)c21", "note": "[4-[2,5-bis(oxidanylidene)pyrrolidin-1-yl]-N-(3-ethyl-4,7-dimethoxy-1,3-benzothiazol-2-ylidene)benzamide]", "IC50": 14.7}, {"compound": "COc1cc(C)cc(C(=O)O)c1C1C(=O)C(=O)c2c(O)cccc2C1=O", "note": "(centres undefined) [MLS000877007]", "IC50": 5.43}, {"compound": "O=C1N=c2ccccc2=C1NNC(=O)c1cc(-c2cccs2)n[nH]1", "note": "[N'-(2-oxoindol-3-yl)-5-thiophen-2-yl-1H-pyrazole-3-carbohydrazide]", "IC50": 11.5}, {"compound": "CC[N+](C)(CC)CCCC(N=O)C(O)(c1ccccc1)c1ccccc1", "note": "(centres undefined) [diethyl-(5-hydroxy-4-hydroxyimino-5,5-diphenylpentyl)-methylammonium;iodide]", "IC50": 100}, {"compound": "COc1ccc2c(c1)=C(NNC(=O)Cc1cccs1)C(=O)N=2", "IC50": 11}, {"compound": "O=C(O)c1ccc(N=NCc2cc3c(cc2[N+](=O)[O-])OCO3)cc1", "IC50": 21.8}]}]}
